Experiment: mn = molality of the nth substance listed, in mol/kg
Conditions: Liquid, Constant-volume piezometry

[Br-].[NH4+] [ammonium bromide] + N
mass density [kg/m3]
Conditions	303.15 K	313.15 K	323.15 K	333.15 K	343.15 K	353.15 K	363.15 K	373.15 K
10000 kPa, m1 = 1.143	675.9	661.3	646.8	630.2	612.8	594.5	576	–
10000 kPa, m1 = 2.601	750.8	737.8	724.3	709.5	693.7	676.6	659.3	–
10000 kPa, m1 = 4.381	829	817.3	805	791.1	778.3	765.5	748.7	737.7
10000 kPa, m1 = 7.359	939.1	926.8	914.3	903.1	891.2	878.6	866.4	854.6
10000 kPa, m1 = 10.35	1028.9	1017	1005.2	994.4	983.9	973	961.1	950.1
10000 kPa, m1 = 15.17	1126.2	1116.9	1105.9	1096	1086.6	–	1067.8	1057.7
15000 kPa, m1 = 1.143	679.5	665.1	651.2	635.4	618.5	601.3	583.7	569.5
15000 kPa, m1 = 2.601	754.5	741.4	727.7	714	698.1	681.9	665.4	652.4
15000 kPa, m1 = 4.381	832.7	820.9	808.9	795.1	782.6	769.6	754.3	742.9
15000 kPa, m1 = 7.359	942.7	929.8	917.4	906.7	894.7	882.5	870.2	858.5
15000 kPa, m1 = 10.35	1032.2	1020.3	1008.3	997.8	987.4	976.5	965.6	954.3
15000 kPa, m1 = 15.17	1128.1	1118.8	1107.8	1098.2	1089.1	–	1070.1	1060.3
20000 kPa, m1 = 1.143	682.7	668.9	655.4	640.3	624.1	607.9	590.9	577.4
20000 kPa, m1 = 2.601	758	745	731.4	718.3	702.6	687.1	671.2	658.4
20000 kPa, m1 = 4.381	836.1	824.2	812.6	799.1	786.7	773.8	759.5	748
20000 kPa, m1 = 7.359	945.8	932.8	920.3	909.8	898.2	886.2	873.8	862.2
20000 kPa, m1 = 10.35	1034.9	1023.2	1011.2	1001.2	991.3	979.8	969	958
20000 kPa, m1 = 15.17	1130.1	1120.4	1109.7	1100.3	1091.2	–	1072.4	1062.6
25000 kPa, m1 = 1.143	686.3	672.6	659.7	645.1	629.9	614.6	598.2	585.2
25000 kPa, m1 = 2.601	761.3	748.6	734.9	722.5	707.2	692	677.1	664.3
25000 kPa, m1 = 4.381	839.1	827.6	816.1	803	790.7	778.1	764.4	752.9
25000 kPa, m1 = 7.359	948.9	935.5	923	912.7	901.6	889.7	877.4	865.9
25000 kPa, m1 = 10.35	1037.4	1025.9	1014.1	1004	993.6	983	972.5	961.3
25000 kPa, m1 = 15.17	1132	1122	1111.5	1102.2	1093.3	–	1074.8	1065.1
30000 kPa, m1 = 1.143	689.5	676.3	663.8	649.5	635.4	621.2	605.2	592.7
30000 kPa, m1 = 2.601	764.4	752.1	738.7	726.3	711.7	697	682.6	670
30000 kPa, m1 = 4.381	842.1	830.7	819.4	807.1	794.2	782.2	769	757.6
30000 kPa, m1 = 7.359	951.2	938	926	915.6	904.9	893.2	881.3	870
30000 kPa, m1 = 10.35	1039.8	1028.6	1016.7	1006.9	995.8	986.6	975.7	964.7
30000 kPa, m1 = 15.17	1134	1123.6	1113.4	1104	1095.4	–	1076.8	1067.1

Source: the NIST ThermoML archive (doi:10.1021/je900359y)
